Test results taken from patent US4528287A, “6-Fluoro-1, 4-dihydro-4-oxo-7-substituted piperazinylquinoline-3-carboxylic acids and the method for preparing the same” (priority 1983, dated 1985).
In brackets after ≈: the same amount, converted by molar mass. Like-named read-outs stand apart in the source and are kept apart here.

Legend:
[1] = Urinary excretion in rats after oral dosing (bioassay with Escherichia coli NIHJ-JC-2); type: in vivo, SD strain); details: rat, male SD rats, 20 mg/Kg per os, fasted 24 hr; for concentration at 6 h: urine 0-6 hr, read-out: Drug Concentration in Urine 0-6 (hr); for dose excreted at 24 h: urine 0-24 hr, read-out: Rate of Urinary Excretion 0-24 (hr); for concentration at 24 h: urine 6-24 hr, read-out: Drug Concentration in Urine 6-24 (hr)
Procedure: Male rats of SD strain, weighing 180-210 g, were used 8 animals at a group. Test compounds suspended in 0.5% carboxymethyl cellulose were administered per os to 24 hr-fasted rats at dose of 20 mg/Kg. Urine was pooled from 0 to 6 hrs. and 6 to 24 hrs, and urinary excretion was measured by bioassay using Escherichia coli NIHJ-JC-2.
The assay method employed was the cup-plate method using
Escherichia coli NIHJ-JC-2. Urine was appropriately diluted with 1/15M phosphate buffer pH7.0, before assay if necessary. Standard calibration lines were made in 1/15M phosphate buffer pH7.0.

in vivo = details: mouse, male ddY mice, 10 days
Procedure: Male mice of ddY strain, 4 weeks old, were used with 10 animals at a group. Test compounds suspended in 0.5% carboxymethyl cellulose were administered per os (p.o.) in mice. In the case of intraveneous (i.v.) administration, test compounds were solved in 0.1N-HCl solution and neutralized with 0.1N-NaOH solution.

[2] = system: Staphylococcus aureus Terajima; assay: MIC, twofold agar dilution; type: cell-based; details: Gram +, 10^6 cells/ml, 18 hrs, 37° C., read-out: Minimum inhibitory concentration (MIC)
Procedure: (§1) Minimum inhibitory concentrations (MIC) were determined by the twofold agar dilution method (Chemotherapy, 29(1), 76(1981)). Overnight cultures in Mueller-Hinton broth were suspended by buffered saline gelatine. One loopful of the bacterial suspension (10^6 or 10^8 colony-forming units/ml) was incubated onto the test compound-containing plates. The plates were incubated for 18 hrs. at 37° C. The MIC was the lowest concentration of the drug that inhibited visible growth.

[3] = system: Klebsiella pneumoniae PCI-602; assay: MIC, twofold agar dilution; type: cell-based; details: PCI602, Gram -, 10^6 cells/ml, 18 hrs, 37° C., read-out: Minimum inhibitory concentration (MIC)
Procedure: as §1

[4] = system: Serratia marcescens IAM1184; assay: MIC, twofold agar dilution; type: cell-based; details: Gram -, 10^6 cells/ml, 18 hrs, 37° C., read-out: Minimum inhibitory concentration (MIC)
Procedure: as §1

[5] = system: Salmonella enteritidis G14; assay: MIC, twofold agar dilution; type: cell-based; details: Salmonella enterica, Gram -, 10^6 cells/ml, 18 hrs, 37° C., read-out: Minimum inhibitory concentration (MIC)
Procedure: as §1

[6] = system: Staphylococcus aureus FAD208PJC-1; assay: MIC, twofold agar dilution; type: cell-based; details: FAD208PJC1, Gram +, 10^6 cells/ml, 18 hrs, 37° C., read-out: Minimum inhibitory concentration (MIC)
Procedure: as §1

[7] = system: Micrococcus luteus ATCC9341; assay: MIC, twofold agar dilution; type: cell-based; details: Gram +, 10^6 cells/ml, 18 hrs, 37° C., read-out: Minimum inhibitory concentration (MIC)
Procedure: as §1

[8] = system: Salmonella paratyphi 1015; assay: MIC, twofold agar dilution; type: cell-based; details: Salmonella enterica, 18 h, read-out: Minimum inhibitory concentration (MIC)
Procedure: as §1

Proteus vulgalis OX-19 = assay: MIC, twofold agar dilution; type: cell-based; details: Gram -; 10^6 cells/ml; 18 hrs, 37° C.; read-out: Minimum inhibitory concentration (MIC)
Procedure: as §1

[9] = system: Escherichia coli NIHJ-JC-2; assay: MIC, twofold agar dilution; type: cell-based; details: NIHJJC2, Gram -, 10^6 cells/ml, 18 hrs, 37° C., read-out: Minimum inhibitory concentration (MIC)
Procedure: as §1

[10] = system: Salmonella typhimurium IID 971; assay: MIC, twofold agar dilution; type: cell-based; details: Salmonella enterica; Gram -; 10^6 cells/ml; 18 hrs, 37° C.; read-out: Minimum inhibitory concentration (MIC)
Procedure: as §1

[11] = system: Enterobacter aerogenes ATCC13048; assay: MIC, twofold agar dilution; type: cell-based; details: Klebsiella aerogenes, Gram -, 10^6 cells/ml, 18 hrs, 37° C., read-out: Minimum inhibitory concentration (MIC)
Procedure: as §1

Proteus vulgalis HX-19 = assay: MIC, twofold agar dilution; type: cell-based; details: Gram -; 10^6 cells/ml; 18 hrs, 37° C.; read-out: Minimum inhibitory concentration (MIC)
Procedure: as §1

Salmonella typhi 901 = assay: MIC, twofold agar dilution; type: cell-based; details: Salmonella enterica, 18 h, read-out: Minimum inhibitory concentration (MIC)
Procedure: as §1

[12] = system: Staphylococcus aureus MS-353; assay: MIC, twofold agar dilution; type: cell-based; details: MS353, Gram +, 10^6 cells/ml, 18 hrs, 37° C., read-out: Minimum inhibitory concentration (MIC)
Procedure: as §1

[13] = system: Streptococcus pyogenes Cook; assay: MIC, twofold agar dilution; type: cell-based; details: Gram +, 10^6 cells/ml, 18 hrs, 37° C., read-out: Minimum inhibitory concentration (MIC)
Procedure: as §1

[14] = system: Pseudomonas aeruginosa IFO3445; assay: MIC, twofold agar dilution; type: cell-based; details: Gram -, 10^6 cells/ml, 18 hrs, 37° C., read-out: Minimum inhibitory concentration (MIC)
Procedure: as §1

[15] = system: Pseudomonas aeruginosa ATCC9027; assay: MIC, twofold agar dilution; type: cell-based; details: Gram -, 10^6 cells/ml, 18 hrs, 37° C., read-out: Minimum inhibitory concentration (MIC)
Procedure: as §1

[16] = system: Enterobacter cloaceas 963; assay: MIC, twofold agar dilution; type: cell-based; details: Gram -, 10^6 cells/ml, 18 hrs, 37° C., read-out: Minimum inhibitory concentration (MIC)
Procedure: as §1

[17] = system: Pseudomonas aeruginosa PAO7; assay: MIC, twofold agar dilution; type: cell-based; details: Gram -, 10^6 cells/ml, 18 hrs, 37° C., read-out: Minimum inhibitory concentration (MIC)
Procedure: as §1

[18] = system: Bacillus subtilis ATCC6633; assay: MIC, twofold agar dilution; type: cell-based; details: Gram +, 10^6 cells/ml, 18 hrs, 37° C., read-out: Minimum inhibitory concentration (MIC)
Procedure: as §1

[19] = system: Escherichia coli K-12 C600; assay: MIC, twofold agar dilution; type: cell-based; details: K12C600, Gram -, 10^6 cells/ml, 18 hrs, 37° C., read-out: Minimum inhibitory concentration (MIC)
Procedure: as §1

[20] = system: Salmonella schottmulleri 0006; assay: MIC, twofold agar dilution; type: cell-based; details: Gram -, 10^6 cells/ml, 18 hrs, 37° C., read-out: Minimum inhibitory concentration (MIC)
Procedure: as §1

[21] = system: Pseudomonas aeruginosa NCTC10490; assay: MIC, twofold agar dilution; type: cell-based; details: Gram -, 10^6 cells/ml, 18 hrs, 37° C., read-out: Minimum inhibitory concentration (MIC)
Procedure: as §1

[22] = system: Proteus mirabilis IFO3849; assay: MIC, twofold agar dilution; type: cell-based; details: Gram -, 10^6 cells/ml, 18 hrs, 37° C., read-out: Minimum inhibitory concentration (MIC)
Procedure: as §1

Proteus morganii IFO3848 = assay: MIC, twofold agar dilution; type: cell-based; details: Morganella morganii, Gram -, 10^6 cells/ml, 18 hrs, 37° C., read-out: Minimum inhibitory concentration (MIC)
Procedure: as §1

Proteus rettgeri IFO3850 = assay: MIC, twofold agar dilution; type: cell-based; details: Providencia rettgeri, Gram -, 10^6 cells/ml, 18 hrs, 37° C., read-out: Minimum inhibitory concentration (MIC)
Procedure: as §1

Compound | MIC [2] [µg/mL] | MIC [3] [µg/mL] | MIC [4] [µg/mL] | MIC [5] [µg/mL] | MIC [6] [µg/mL] | MIC [7] [µg/mL] | MIC [8] [µg/mL] | MIC (Proteus vulgalis OX-19) [µg/mL] | MIC [9] [µg/mL] | MIC [10] [µg/mL] | MIC [11] [µg/mL] | MIC (Proteus vulgalis HX-19) [µg/mL] | MIC (Salmonella typhi 901) [µg/mL] | MIC [12] [µg/mL] | MIC [13] [µg/mL] | MIC [14] [µg/mL] | MIC [15] [µg/mL] | MIC [16] [µg/mL] | MIC [17] [µg/mL] | MIC [18] [µg/mL] | other results
CCn1cc(C(=O)O)c(=O)c2cc(F)c(N3CCNC(C)C3)cc21 (stereo not shown) [Example 1, 1-Ethyl-6-fluoro-1,4-dihydro-7-(3-methyl-1-piperazinyl)-4-oxoquinoline-3-carboxylic acid] | 0.39 (≈ 1.17 µM) | 0.025 (≈ 0.075 µM) | 0.2 (≈ 0.6 µM) | 0.1 (≈ 0.3 µM) | 0.2 (≈ 0.6 µM) | 25 (≈ 75 µM) | 0.0125 (≈ 0.0375 µM) | 0.05 (≈ 0.15 µM) | 0.1 (≈ 0.3 µM) | 0.1 (≈ 0.3 µM) | 0.1 (≈ 0.3 µM) | 0.025 (≈ 0.075 µM) | 0.05 (≈ 0.15 µM) | 0.39 (≈ 1.17 µM) | 3.13 (≈ 9.39 µM) | 0.78 (≈ 2.34 µM) | 0.1 (≈ 0.3 µM) | 0.1 (≈ 0.3 µM) | 0.78 (≈ 2.34 µM) | 0.1 (≈ 0.3 µM) | concentration at 6 h [1]: 514 µg/mL; dose excreted at 24 h [1]: 30%; concentration at 24 h [1]: 28 µg/mL; LD50 at 240 h (in vivo; iv, i.v., read-out: LD50 i.v. (95% Confidence Limit)): 348 mg/kg; LD50 at 240 h (in vivo; po, p.o., read-out: LD50 p.o.): > 4000 mg/kg; MIC [19]: 0.1 µg/mL (≈ 0.3 µM); MIC [20]: 0.025 µg/mL (≈ 0.075 µM); MIC [21]: 0.39 µg/mL (≈ 1.17 µM); MIC [22]: 0.39 µg/mL (≈ 1.17 µM); MIC (Proteus morganii IFO3848): 0.025 µg/mL (≈ 0.075 µM); MIC (Proteus rettgeri IFO3850): 0.1 µg/mL (≈ 0.3 µM)
CC1CN(c2c(F)cc3c(=O)c(C(=O)O)cn(CCF)c3c2F)CCN1 (stereo not shown) [Example 16, 6,8-Difluoro-1-(2-fluoroethyl)-1,4-dihydro-7-(3-methyl-1-piperazinyl)-4-oxoquinoline-3-carboxylic acid] | 0.78 (≈ 2.11 µM) | 0.023 (≈ 0.0623 µM) | 0.2 (≈ 0.542 µM) | 0.2 (≈ 0.542 µM) | 0.38 (≈ 1.03 µM) | 6.25 (≈ 16.9 µM) | 0.05 (≈ 0.135 µM) | 0.2 (≈ 0.542 µM) | 0.1 (≈ 0.271 µM) | 0.2 (≈ 0.542 µM) | 0.2 (≈ 0.542 µM) | 0.05 (≈ 0.135 µM) | 0.1 (≈ 0.271 µM) | 1.56 (≈ 4.22 µM) | 3.13 (≈ 8.47 µM) | 0.78 (≈ 2.11 µM) | 0.1 (≈ 0.271 µM) | 0.2 (≈ 0.542 µM) | 1.56 (≈ 4.22 µM) | 0.2 (≈ 0.542 µM) | concentration at 6 h [1]: 344 µg/mL; dose excreted at 24 h [1]: 41%; concentration at 24 h [1]: 46 µg/mL; MIC [19]: 0.2 µg/mL (≈ 0.542 µM); MIC [20]: 0.1 µg/mL (≈ 0.271 µM); MIC [21]: 0.38 µg/mL (≈ 1.03 µM); MIC [22]: 0.39 µg/mL (≈ 1.06 µM); MIC (Proteus morganii IFO3848): 0.05 µg/mL (≈ 0.135 µM); MIC (Proteus rettgeri IFO3850): 0.2 µg/mL (≈ 0.542 µM)
CCn1cc(C(=O)O)c(=O)c2cc(F)c(N3CC(C)NC(C)C3)c(F)c21 (stereo not shown) [Example 20] | 1.56 (≈ 4.27 µM) | 0.2 (≈ 0.547 µM) | 0.78 (≈ 2.13 µM) | 0.39 (≈ 1.07 µM) | 0.78 (≈ 2.13 µM) | 12.5 (≈ 34.2 µM) | 0.1 (≈ 0.274 µM) | 0.1 (≈ 0.274 µM) | 0.39 (≈ 1.07 µM) | 0.2 (≈ 0.547 µM) | 0.2 (≈ 0.547 µM) | 0.2 (≈ 0.547 µM) | 0.1 (≈ 0.274 µM) | 1.56 (≈ 4.27 µM) | 6.25 (≈ 17.1 µM) | 3.13 (≈ 8.57 µM) | 0.2 (≈ 0.547 µM) | 0.2 (≈ 0.547 µM) | 3.13 (≈ 8.57 µM) | 0.2 (≈ 0.547 µM) | MIC [19]: 0.2 µg/mL (≈ 0.547 µM); MIC [20]: 0.1 µg/mL (≈ 0.274 µM); MIC [21]: 0.78 µg/mL (≈ 2.13 µM); MIC [22]: 1.56 µg/mL (≈ 4.27 µM); MIC (Proteus morganii IFO3848): 0.2 µg/mL (≈ 0.547 µM); MIC (Proteus rettgeri IFO3850): 0.39 µg/mL (≈ 1.07 µM)
CCn1cc(C(=O)O)c(=O)c2cc(F)c(N3CCNCC3)cc21 [Reference Drug, norfloxacin, reference compound] | 0.39 (≈ 1.22 µM) | 0.025 (≈ 0.0783 µM) | 0.1 (≈ 0.313 µM) | 0.05 (≈ 0.157 µM) | 0.2 (≈ 0.626 µM) | 6.25 (≈ 19.6 µM) | 0.025 (≈ 0.0783 µM) | 0.05 (≈ 0.157 µM) | 0.05 (≈ 0.157 µM) | 0.05 (≈ 0.157 µM) | 0.1 (≈ 0.313 µM) | 0.025 (≈ 0.0783 µM) | 0.025 (≈ 0.0783 µM) | 6.25 (≈ 19.6 µM) | 1.56 (≈ 4.89 µM) | 0.78 (≈ 2.44 µM) | 0.05 (≈ 0.157 µM) | 0.05 (≈ 0.157 µM) | 0.39 (≈ 1.22 µM) | 0.1 (≈ 0.313 µM) | MIC [19]: 0.05 µg/mL (≈ 0.157 µM); MIC [20]: 0.025 µg/mL (≈ 0.0783 µM); MIC [21]: 0.78 µg/mL (≈ 2.44 µM); MIC [22]: 0.1 µg/mL (≈ 0.313 µM); MIC (Proteus morganii IFO3848): 0.025 µg/mL (≈ 0.0783 µM); MIC (Proteus rettgeri IFO3850): 0.05 µg/mL (≈ 0.157 µM)
